This is an account of results in patent US12344623B2, “Thiazolopyridine derivatives as adenosine receptor antagonists” (Merck Patent GmbH, priority 2019, dated 2025).

As usually defined, the IC50 is the concentration at which inhibition is half-maximal.

Common to all, as to format: cell-based
The target in one experiment is T1, human A3 receptor (Homo sapiens, UniProt P0DMS8).
T1 construct: expressed in transfected cells; host or cells: CHO
T1 sequence (P0DMS8 1-318): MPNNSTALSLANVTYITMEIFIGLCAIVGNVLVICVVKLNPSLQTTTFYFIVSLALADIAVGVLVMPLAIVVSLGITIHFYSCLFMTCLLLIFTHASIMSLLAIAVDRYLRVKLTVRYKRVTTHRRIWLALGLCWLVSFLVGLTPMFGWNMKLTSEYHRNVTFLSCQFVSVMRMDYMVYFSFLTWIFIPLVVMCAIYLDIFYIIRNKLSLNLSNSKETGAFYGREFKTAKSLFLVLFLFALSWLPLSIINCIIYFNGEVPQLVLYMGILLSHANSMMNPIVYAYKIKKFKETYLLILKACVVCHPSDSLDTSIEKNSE
Put plainly: Functional A3 receptor activity, recombinant CHO cells, cAMP (HTRF), forskolin, agonist IB-MECA. The following applies: recombinant CHO cells, forskolin, agonist IB-MECA; read-out: Functional A3 receptor activity, CHO, cAMP, IC50. In outline:
(§1)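 Gi-coupled readout: CHO cells expressing human A1 or A3 receptor were treated with forskolin, test compound and agonist (CPA for A1, IB-MECA for A3) for 30 min; cellular cAMP was then measured by HTRF. Data were normalized to inhibitor and DMSO controls and curve-fitted.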
On the technique in general: Time-resolved FRET reads energy transfer from a long-lived donor to a nearby acceptor.

Another experiment has as its target T2, human A2B receptor (Homo sapiens, UniProt P29275).
T2 construct: expressed in transfected cells; host or cells: HEK293
T2 sequence (P29275 1-332): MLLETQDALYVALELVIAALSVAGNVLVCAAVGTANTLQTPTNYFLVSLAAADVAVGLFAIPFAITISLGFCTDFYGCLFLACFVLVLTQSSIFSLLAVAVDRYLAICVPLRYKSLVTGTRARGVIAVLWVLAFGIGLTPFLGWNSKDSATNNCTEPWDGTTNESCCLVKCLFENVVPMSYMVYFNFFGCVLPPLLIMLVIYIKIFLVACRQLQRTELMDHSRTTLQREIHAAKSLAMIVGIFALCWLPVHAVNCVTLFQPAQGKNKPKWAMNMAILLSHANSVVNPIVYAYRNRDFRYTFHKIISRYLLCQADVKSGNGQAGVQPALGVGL
Put plainly: Functional A2B receptor activity, recombinant HEK293 cells, cAMP (HTRF), agonist NECA. In outline:
(§2)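 Forskolin, test compounds and agonist were added together to the cells and incubated for 30 min. Cellular cAMP was then quantified by HTRF. Raw signals were normalized to an inhibitor control and a neutral DMSO control, and the normalized data were curve-fitted.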

Another experiment has as its target T3, human A1 receptor (Homo sapiens, UniProt P30542).
T3 construct: expressed in transfected cells; host or cells: CHO
T3 sequence (P30542 1-326): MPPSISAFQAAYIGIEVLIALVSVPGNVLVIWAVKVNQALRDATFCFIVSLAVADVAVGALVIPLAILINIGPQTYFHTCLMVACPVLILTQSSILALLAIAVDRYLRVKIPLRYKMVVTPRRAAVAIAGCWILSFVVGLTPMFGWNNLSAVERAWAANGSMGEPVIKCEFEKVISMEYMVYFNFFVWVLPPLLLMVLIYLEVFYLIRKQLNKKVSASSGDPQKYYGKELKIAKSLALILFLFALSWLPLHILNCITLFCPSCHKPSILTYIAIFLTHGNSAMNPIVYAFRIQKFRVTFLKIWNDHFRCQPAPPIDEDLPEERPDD
Kind of experiment: Functional A1 receptor activity, recombinant CHO cells, cAMP (HTRF), forskolin, agonist CPA. Conditions: recombinant CHO cells, forskolin, agonist CPA; read-out: Functional A1 receptor activity, CHO, cAMP, IC50. In outline: as §1

Experiment [1] deals with T4, human A2A receptor (Homo sapiens, UniProt P29274). Kind of experiment: Human T cells, endogenous A2A receptor, cAMP, agonist NECA. As to the method: The endogenous functional activity of the Gs-coupled human A2A receptor was measured in T cells, where this receptor is highly expressed. Determination of receptor activity was done by quantification of cAMP, which is a second messenger for adenosine receptors.
T4 sequence (P29274 whole entry): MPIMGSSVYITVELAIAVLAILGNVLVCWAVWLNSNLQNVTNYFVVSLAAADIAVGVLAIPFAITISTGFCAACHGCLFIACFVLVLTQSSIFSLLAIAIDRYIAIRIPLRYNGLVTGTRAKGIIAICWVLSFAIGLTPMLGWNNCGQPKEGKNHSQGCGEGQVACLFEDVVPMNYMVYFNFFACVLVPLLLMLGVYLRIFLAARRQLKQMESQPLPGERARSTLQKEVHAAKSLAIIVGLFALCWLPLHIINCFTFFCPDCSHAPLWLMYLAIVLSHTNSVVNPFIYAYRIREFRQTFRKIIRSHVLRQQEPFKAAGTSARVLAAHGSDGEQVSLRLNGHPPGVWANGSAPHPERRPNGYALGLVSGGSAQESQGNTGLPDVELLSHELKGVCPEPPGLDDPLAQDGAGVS
In short, human pan T cells were isolated from human PBMC (MACS Pan T Cell Isolation Kit, Miltenyi Biotec) that have been derived from fresh whole blood. The T cells were seeded in 384-well microtiter plates and treated with test compounds. […] Finally, HTRF reagents (cAMP Femto Kit, CisBio) were added to the wells, and after 1 h cellular cAMP levels were determined using the ENVISION (Perkin Elmer) plate reader.
The obtained raw data were normalized against the inhibitor control and the neutral control (DMSO) and the normalized data were fitted using Genedata Screener software.

Experiment [2] concerns the target T4, human A2A receptor. Put plainly: Functional A2A receptor activity, recombinant HEK293 cells, cAMP (HTRF), agonist NECA. On the set-up: expressed in transfected cells; host or cells: HEK293. In outline:
as §2

The next experiment deals with mouse Pan T cells. Kind of experiment: mTcell assay, cAMP, agonist NECA. Conditions: Mus musculus, T-cell. The source says: Adenosine (Ado) in tumor microenvironment can inhibit T cell activity by signaling through A2A receptors and suppress cytokine secretion by T cells. […] Potential A2A antagonists or A2A/A2B dual antagonists can rescue T cells from this inhibition. Herein, we describe the in vitro system we established using Pan T cells from mouse spleens to screen potential A2A antagonists or A2A/A2B dual antagonists for their activity. The method described involves the use of CD3/CD28 pre-coated beads to stimulate Pan T cells purified from mouse splenocytes, combined with the addition of A2A agonist along with potential A2A or A2A/A2B dual antagonists to evaluate potentiation of T cell cytokine production.
Pan T-cells are isolated from black 6 mice by manual dissociation and purified using a Miltenyi Pan T-cell isolation kit. The isolated T-cells are activated in 96 well plates for 48 hours using anti-CD3/CD28 beads in T-cell proliferation media.
After 48 hours, the T-cells are pooled, counted and suspended in serum free media containing 0.1% BSA. The cells are plated at 50,000 cells per well in 10 ul of media and incubated for 2 hours at 37° C. Test compounds are dispensed into the wells at a 10-point dose response, starting at a concentration of 10 uM. […] The plates are incubated for 30 minutes at 37° C. and assayed for cAMP levels using the Cisbio cAMP Dynamic2 reagent kit by adding 10 ul of the kit reagents to each well. The plates are incubated for 1 hour at room temperature and the HTRF signal is read on an Envision plate reader. The raw data is analyzed in Genedata Screener and the resulting data is loaded into the database.

Where [3] appears, read: read-out: Functional A2B receptor activity, HEK293, cAMP, IC50.
Where [4] appears, read: read-out: hTcell data, cAMP, IC50.
Setting [5] is: read-out: Functional A2A receptor activity, HEK293, cAMP, IC50.

Molecules are shown by their SMILES. Like-named read-outs stand apart in the source and are kept apart here.

Consider `COc1ncc(C2=CCOCC2)c2sc(NC(=O)c3c[nH]cn3)nc12` [Compound 65, 1H-Imidazole-4-carboxylic acid [7-(3,6-dihydro-2H-pyran-4-yl)-4-methoxy-thiazolo[4,5-c]pyridin-2-yl]-amide], for which the IC50 on human A3 receptor was > 1000 nM; on human A2B receptor (setting [3]), < 10 nM; at human A1 receptor, < 100 nM; at human A2A receptor [1] (setting [4]), < 10 nM; at human A2A receptor [2] (setting [5]), < 10 nM.
Take `COc1cnc(N2CCOCC2)c2sc(NC(=O)N3CCOCC3)nc12` [drawing 213]: the IC50 with mouse Pan T cells is > 1000 nM.
In the case of `COc1ncc(C2=CCC(F)(F)CC2)c2sc(NC(=O)N3CCC4(CCOCC4)C3)nc12` [Compound 63, 8-Oxa-2-aza-spiro[4.5]decane-2-carboxylic acid [7-(4,4-difluoro-cyclohex-1-enyl)-4-methoxy-thiazolo[4,5-c]pyridin-2-yl]-amide], the IC50 on human A3 receptor was > 1000 nM; at human A2B receptor (setting [3]), < 100 nM; on human A1 receptor, < 1000 nM; on human A2A receptor [1] (setting [4]), < 10 nM; at human A2A receptor [2] (setting [5]) it was < 10 nM.
Take `COc1ncc([C@H]2COCCO2)c2sc(NC(=O)c3ccc(C(=O)O)cc3)nc12` [Compound 170, N-((S)-7-[1,4]Dioxan-2-yl-4-methoxy-thiazolo[4,5-c]pyridin-2-yl)-terephthalamic acid]: the IC50 is > 1000 nM on human A3 receptor; < 100 nM at human A2B receptor (setting [3]); > 1000 nM at human A1 receptor; < 10 nM on human A2A receptor [1] (setting [4]); < 10 nM on human A2A receptor [2] (setting [5]).
Regarding `COc1cnc(N2CCOCC2)c2sc(NC(=O)N3CCC4(CCN(C)C4=O)CC3)nc12` [drawing 205], in the experiment with mouse Pan T cells, the IC50 was > 1000 nM.
With `COc1nc(F)c(C2CCOCC2)c2sc(NC(=O)N3CC[C@@]4(CCOC4)C3)nc12` [Compound 37, (R)-2-Oxa-7-aza-spiro[4.4]nonane-7-carboxylic acid [6-fluoro-4-methoxy-7-(tetrahydro-pyran-4-yl)-thiazolo[4,5-c]pyridin-2-yl]-amide], the IC50 at human A3 receptor is > 1000 nM; on human A2B receptor (setting [3]), < 100 nM; at human A1 receptor it was > 1000 nM; on human A2A receptor [1] (setting [4]), < 10 nM; at human A2A receptor [2] (setting [5]), < 10 nM.
For `[2H]C([2H])([2H])Oc1ncc(C2=CCOCC2)c2sc(NC(=O)N3CC[C@@]4(CCCOC4)C3)nc12` [Compound 174, (5S)-N-[7-(3,6-dihydro-2H-pyran-4-yl)-4-(2H3)methoxy-[1,3]thiazolo[4,5-c]pyridin-2-yl]-7-oxa-2-azaspiro[4.5]decane-2-carboxamide], the IC50 at human A3 receptor was > 1000 nM; at human A2B receptor it was < 100 nM; at human A1 receptor, > 1000 nM; at human A2A receptor [1], < 10 nM; at human A2A receptor [2], < 10 nM.
With `COc1ccc(N2CCOCC2)c2sc(NC(=O)N3CCCCC3)nc12` [drawing 211], the IC50 with mouse Pan T cells is < 1000 nM.
With `COc1ncc(C2=CCCCC2)c2sc(NC(=O)N3CCC4(CCOCC4)C3)nc12` [Compound 59, 8-Oxa-2-aza-spiro[4.5]decane-2-carboxylic acid (7-cyclohex-1-enyl-4-methoxy-thiazolo[4,5-c]pyridin-2-yl)-amide], the IC50 on human A3 receptor is > 1000 nM; at human A2B receptor (setting [3]) it was < 100 nM; at human A1 receptor, < 1000 nM; on human A2A receptor [1] (setting [4]), < 10 nM; at human A2A receptor [2] (setting [5]), < 10 nM.
`COc1ncc(C2COCCO2)c2sc(NC(=O)c3ccc(-c4nnn[nH]4)cc3)nc12` (stereo not drawn) [Compound 164, N-(7-[1,4]Dioxan-2-yl-4-methoxy-thiazolo[4,5-c]pyridin-2-yl)-4-(1H-tetrazol-5-yl)-benzamide]: the IC50 at human A3 receptor was > 1000 nM; at human A2B receptor (setting [3]), < 10 nM; on human A1 receptor it was > 1000 nM; on human A2A receptor [1] (setting [4]), < 100 nM; at human A2A receptor [2] (setting [5]), < 10 nM.
With `COc1ncc(C2=CCOCC2)c2sc(NC(=O)c3ccc(C(=O)O)cc3)nc12` [Compound 72, 4-{[7-(3,6-dihydro-2H-pyran-4-yl)-4-methoxy-[1,3]thiazolo[4,5-c]pyridin-2-yl]carbamoyl}benzoic acid], the IC50 on human A3 receptor was > 1000 nM; on human A2B receptor (setting [3]), < 10 nM; at human A1 receptor, < 1000 nM; at human A2A receptor [1] (setting [4]) it was < 100 nM; at human A2A receptor [2] (setting [5]) it was < 10 nM.
As for `COc1ncc(C2=CCOCC2)c2sc(NC(=O)N3CCC(N4C(=O)CSC4=O)CC3)nc12` [Compound 91, N-[7-(3,6-dihydro-2H-pyran-4-yl)-4-methoxy-[1,3]thiazolo[4,5-c]pyridin-2-yl]-4-(2,4-dioxo-1,3-thiazolidin-3-yl)piperidine-1-carboxamide], the IC50 is > 1000 nM at human A3 receptor; < 10 nM at human A2B receptor (setting [3]); > 1000 nM on human A1 receptor; < 10 nM on human A2A receptor [1] (setting [4]); < 10 nM at human A2A receptor [2] (setting [5]).
In the case of `COc1ncc(C2=CCOCC2)c2sc(NC(=O)c3ccc(-n4ccnn4)cc3)nc12` [Compound 71, N-[7-(3,6-dihydro-2H-pyran-4-yl)-4-methoxy-[1,3]thiazolo[4,5-c]pyridin-2-yl]-4-(1H-1,2,3-triazol-1-yl)benzamide], the IC50 on human A3 receptor was > 1000 nM; on human A2B receptor (setting [3]), < 10 nM; on human A1 receptor, < 1000 nM; at human A2A receptor [1] (setting [4]) it was < 10 nM; at human A2A receptor [2] (setting [5]), < 10 nM.
Regarding `[2H]C([2H])([2H])Oc1ncc(C2=CCOCC2)c2sc(NC(=O)N3CC[C@]4(CCCOC4)C3)nc12` [Compound 173, (5R)-N-[7-(3,6-dihydro-2H-pyran-4-yl)-4-(2H3)methoxy-[1,3]thiazolo[4,5-c]pyridin-2-yl]-7-oxa-2-azaspiro[4.5]decane-2-carboxamide], the IC50 at human A3 receptor was > 1000 nM; on human A2B receptor (setting [3]), < 10 nM; at human A1 receptor it was < 1000 nM; at human A2A receptor [1] (setting [4]), < 10 nM; on human A2A receptor [2] (setting [5]) it was < 10 nM.
As for `COc1ncc(C2=CCOCC2)c2sc(NC(=O)Nc3ccc(N4CCCC4=O)cc3)nc12` [Compound 89, 3-[7-(3,6-dihydro-2H-pyran-4-yl)-4-methoxy-[1,3]thiazolo[4,5-c]pyridin-2-yl]-1-[4-(2-oxopyrrolidin-1-yl)phenyl]urea], the IC50 was > 1000 nM at human A3 receptor; < 100 nM on human A2B receptor (setting [3]); > 1000 nM on human A1 receptor; < 10 nM at human A2A receptor [1] (setting [4]); < 10 nM on human A2A receptor [2] (setting [5]).
